{"source": "ChEMBL document CHEMBL1201862", "about": "“PubChem BioAssay data set” (2004)", "key": {"[1]": {"biological_target": "G-protein coupled receptor 35 (Homo sapiens, UniProt Q9HC97)", "sequence (Q9HC97 whole entry)": "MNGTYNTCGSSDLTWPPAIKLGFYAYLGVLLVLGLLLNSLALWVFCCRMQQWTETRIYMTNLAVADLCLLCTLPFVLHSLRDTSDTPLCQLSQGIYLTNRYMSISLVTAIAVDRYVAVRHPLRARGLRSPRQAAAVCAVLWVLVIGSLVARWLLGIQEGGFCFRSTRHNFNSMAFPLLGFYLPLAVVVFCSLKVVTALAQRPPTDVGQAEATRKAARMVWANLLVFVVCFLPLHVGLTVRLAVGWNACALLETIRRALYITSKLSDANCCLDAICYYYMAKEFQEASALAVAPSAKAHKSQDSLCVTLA", "experiment": "inhibition of zaprinast-stimulated GPR35 beta-arrestin translocation – imaging, U2OS, beta-arrestin-GFP, zaprinast agonist, primary screen (AID 2058);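 note: antagonist potency meaning inhibition of agonist-induced arrestin redistribution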", "type": "functional"}, "[2]": {"experiment": "luciferase reporter signal suppression in cells – H4 neuroglioma cells, luminescence, dose response (AID 1990)", "type": "functional, cell-based"}, "[3]": {"test_system": "BJ", "experiment": "BJ-TERT fibroblast viability loss – cell-based, RAS-independent, luminescence, dose response (AID 1933)", "type": "functional", "conditions": "Homo sapiens"}, "[4]": {"experiment": "Luminescence Cell-Based Dose Response HTS to Identify Inhibitors of 5'UTR Stem-Loop Driven Prion Protein mRNA Translation in H4 Neuroglioblastoma Cells. [Related pubchem assays: 1827 (Project Summary), 1813 (Primary HTS)]", "type": "functional"}, "[5]": {"experiment": "alpha-synuclein stem-loop luciferase translation blockers – H4 neuroglioma cells, luminescence, confirmation (AID 1988)", "type": "functional, cell-based"}, "[6]": {"test_system": "BJ", "experiment": "cells", "type": "functional, cell-based", "conditions": "Homo sapiens"}, "[7]": {"experiment": "Trypanosoma cruzi growth suppression in host cells – NIH3T3 host cells, beta-gal luminescence, confirmation (AID 2044);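 note: intracellular parasites grown in NIH/3T3 mouse fibroblasts as host cells; luminescent beta-galactosidase reporter signal from transgenic T. cruzi replicating inside host cells; inhibitors lower the luminescence signal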", "type": "functional, cell-based"}, "[8]": {"experiment": "NIH3T3 cell viability loss – ATP luminescence, mouse fibroblasts, counter-screen, dose response (AID 2010);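 note: cells exposed to compound for about 90 hours before reading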", "type": "functional, cell-based"}, "[9]": {"biological_target": "Sphingosine 1-phosphate receptor 4 (Homo sapiens, UniProt O95977)", "sequence (O95977 whole entry)": "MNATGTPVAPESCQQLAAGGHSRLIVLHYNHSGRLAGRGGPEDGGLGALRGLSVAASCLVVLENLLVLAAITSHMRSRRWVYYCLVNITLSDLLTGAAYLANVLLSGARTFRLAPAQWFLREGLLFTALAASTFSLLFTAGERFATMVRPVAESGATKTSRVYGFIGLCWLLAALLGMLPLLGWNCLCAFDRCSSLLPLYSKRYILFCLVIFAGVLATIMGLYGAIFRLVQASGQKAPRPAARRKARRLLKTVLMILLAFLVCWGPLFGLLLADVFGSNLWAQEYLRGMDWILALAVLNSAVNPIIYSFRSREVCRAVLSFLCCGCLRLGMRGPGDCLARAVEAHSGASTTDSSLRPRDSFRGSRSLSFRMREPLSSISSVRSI", "experiment": "Fluorescence dose response cell-based high throughput screening assay for antagonists of the Sphingosine 1-Phosphate Receptor 4 (S1P4). [Related pubchem assays: 1524 (Confirmation in triplicates.), 1510 (Primary screen.)]", "type": "functional"}, "[10]": {"test_system": "BJ", "experiment": "BJ-TERT-LT-ST fibroblast viability loss – cell-based, RAS-independent, luminescence, dose response (AID 1935);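 note: BJ fibroblasts immortalized with TERT plus LT and ST oncogenes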", "type": "functional", "conditions": "Homo sapiens"}, "[11]": {"experiment": "DRD fibroblast viability loss – cell-based, non-viral oncogenic, luminescence, dose response (AID 1934)", "type": "functional", "conditions": "Homo sapiens"}, "[12]": {"biological_target": "Sphingosine 1-phosphate receptor 1 (Homo sapiens, UniProt P21453)", "sequence (P21453 whole entry)": "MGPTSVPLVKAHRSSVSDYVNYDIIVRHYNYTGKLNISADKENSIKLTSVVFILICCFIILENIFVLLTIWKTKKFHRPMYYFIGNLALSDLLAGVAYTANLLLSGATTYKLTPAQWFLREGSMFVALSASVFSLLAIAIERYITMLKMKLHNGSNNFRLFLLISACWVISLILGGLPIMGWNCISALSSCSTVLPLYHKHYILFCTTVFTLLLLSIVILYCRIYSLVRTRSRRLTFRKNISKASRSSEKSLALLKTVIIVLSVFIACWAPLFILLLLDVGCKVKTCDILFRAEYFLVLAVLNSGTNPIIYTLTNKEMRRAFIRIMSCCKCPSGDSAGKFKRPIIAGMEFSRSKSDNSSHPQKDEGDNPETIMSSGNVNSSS", "type": "functional"}, "[13]": {"biological_target": "G-protein coupled receptor 55 (Homo sapiens, UniProt Q9Y2T6)", "sequence (Q9Y2T6 whole entry)": "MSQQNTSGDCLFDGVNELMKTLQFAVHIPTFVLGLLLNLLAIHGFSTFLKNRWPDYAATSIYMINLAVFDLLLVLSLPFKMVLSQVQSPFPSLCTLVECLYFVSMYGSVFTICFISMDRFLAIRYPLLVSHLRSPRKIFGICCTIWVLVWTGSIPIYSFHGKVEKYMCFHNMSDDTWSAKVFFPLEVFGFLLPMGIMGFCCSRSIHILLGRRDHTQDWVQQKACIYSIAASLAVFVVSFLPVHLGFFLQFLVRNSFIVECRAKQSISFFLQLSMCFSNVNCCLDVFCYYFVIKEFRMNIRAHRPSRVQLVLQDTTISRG", "experiment": "selective activators of receptor GPR55 – imaging, U2OS cells, beta-arrestin-GFP redistribution, primary screen (AID 1961)", "type": "functional"}, "[14]": {"biological_target": "T1, Microphthalmia-associated transcription factor (Homo sapiens, UniProt O75030)", "T1 sequence (O75030 whole entry)": "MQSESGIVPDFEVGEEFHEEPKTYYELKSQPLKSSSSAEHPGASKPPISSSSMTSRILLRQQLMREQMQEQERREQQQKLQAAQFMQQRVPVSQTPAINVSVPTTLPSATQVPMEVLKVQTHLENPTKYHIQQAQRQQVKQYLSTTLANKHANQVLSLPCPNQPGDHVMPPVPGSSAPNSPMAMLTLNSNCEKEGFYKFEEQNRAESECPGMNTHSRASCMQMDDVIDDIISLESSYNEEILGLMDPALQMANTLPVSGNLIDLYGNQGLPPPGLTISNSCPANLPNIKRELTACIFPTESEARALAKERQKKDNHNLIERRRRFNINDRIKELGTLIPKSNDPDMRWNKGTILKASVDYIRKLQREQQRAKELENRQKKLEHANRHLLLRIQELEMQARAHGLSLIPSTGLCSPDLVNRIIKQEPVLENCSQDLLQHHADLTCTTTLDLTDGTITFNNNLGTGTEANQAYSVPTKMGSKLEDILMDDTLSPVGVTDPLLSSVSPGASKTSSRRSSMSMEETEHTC", "experiment": "reducers of TRPM1 reporter luminescence, concentration series – cell-based, SK-MEL-5, cherry-picked, set 3, MITF inhibitor project, dose response (AID 493073)", "type": "functional"}, "[15]": {"biological_target": "T2, High affinity choline transporter 1 (Homo sapiens, UniProt Q9GZV3)", "T2 sequence (Q9GZV3 whole entry)": "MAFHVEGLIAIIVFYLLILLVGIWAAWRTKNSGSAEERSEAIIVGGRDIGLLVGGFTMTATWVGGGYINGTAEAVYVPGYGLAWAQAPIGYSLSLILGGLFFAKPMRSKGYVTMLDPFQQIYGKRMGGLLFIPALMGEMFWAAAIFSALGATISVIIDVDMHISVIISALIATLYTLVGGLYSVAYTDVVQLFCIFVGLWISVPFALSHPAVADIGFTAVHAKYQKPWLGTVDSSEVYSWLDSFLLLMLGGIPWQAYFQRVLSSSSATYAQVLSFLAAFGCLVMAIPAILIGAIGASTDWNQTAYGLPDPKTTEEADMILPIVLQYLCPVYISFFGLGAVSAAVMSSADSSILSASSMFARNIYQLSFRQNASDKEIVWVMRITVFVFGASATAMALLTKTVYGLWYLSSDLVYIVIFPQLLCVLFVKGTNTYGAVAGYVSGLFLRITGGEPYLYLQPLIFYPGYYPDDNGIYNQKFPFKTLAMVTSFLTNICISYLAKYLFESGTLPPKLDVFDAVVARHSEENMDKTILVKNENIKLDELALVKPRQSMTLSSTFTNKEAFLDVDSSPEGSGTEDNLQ", "experiment": "human choline transporter blockers, potency – cell-based, 5-point CRC, membrane potential dye, dose response (AID 504840)", "type": "functional"}, "[16]": {"test_system": "INS1", "experiment": "INS-1E survival protection against cytokine death – cell-based, luminescence, retest, dose response (AID 449756);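 note: cell death triggered by IL-1 beta plus TNF-alpha plus IFN-gamma mixture; protective hits raise ATP signal compared with cytokine alone wells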", "type": "functional", "conditions": "Rattus norvegicus"}, "[17]": {"biological_target": "T2, High affinity choline transporter 1", "experiment": "human choline transporter blockers, potency – cell-based, 10-point CRC, membrane potential dye, dose response (AID 588401);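 note: membrane potential dye fluorescence of choline-evoked depolarization via CHT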", "type": "functional"}, "[18]": {"test_system": "A-375", "experiment": "proliferation inhibition in MITF-low A375 cells – cell-based, cherry-pick samples, set 2, counter-screen for MITF modulator project, dose response (AID 540335)", "type": "functional", "conditions": "Homo sapiens"}, "[19]": {"experiment": "reduction of Shn3 3'UTR-driven luciferase in osteoblasts – cell-based, Clone20 osteoblasts, firefly luciferase, cherry-picked, dose response (AID 624132)", "type": "functional"}, "[20]": {"experiment": "loss of viability in HepG2 cells – cell-based, CellTiter-Glo, cherry-picked, cytotoxicity control for Shn3 inhibitor project, dose response (AID 624134)", "type": "functional"}, "[21]": {"experiment": "non-specific 3'UTR reporter inhibition in Clone20-Shn3RL – cell-based, Renilla luciferase, cherry-picked, counter-screen for Shn3 inhibitor project, dose response (AID 624133)", "type": "functional"}, "[22]": {"biological_target": "Melanin-concentrating hormone receptor 1 (Homo sapiens, UniProt Q99705)", "sequence (Q99705 whole entry)": "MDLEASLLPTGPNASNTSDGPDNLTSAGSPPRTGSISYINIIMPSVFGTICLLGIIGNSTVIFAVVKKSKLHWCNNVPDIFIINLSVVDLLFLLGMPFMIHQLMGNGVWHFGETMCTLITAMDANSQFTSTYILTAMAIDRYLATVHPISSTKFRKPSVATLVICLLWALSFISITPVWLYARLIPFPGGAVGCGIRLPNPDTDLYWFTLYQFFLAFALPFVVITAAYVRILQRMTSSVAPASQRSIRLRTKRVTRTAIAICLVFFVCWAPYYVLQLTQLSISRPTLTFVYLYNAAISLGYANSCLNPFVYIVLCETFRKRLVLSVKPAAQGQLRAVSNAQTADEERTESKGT", "experiment": "Late-stage fluorescence-based counterscreen for antagonists of the G-protein coupled receptor 7 (GPR7): cell-based dose response assay to identify antagonists of the melanin-concentrating hormone receptor 1 (MCHR1) Set 6.", "type": "functional"}, "[23]": {"biological_target": "Neuropeptides B/W receptor type 1 (Homo sapiens, UniProt P48145)", "sequence (P48145 whole entry)": "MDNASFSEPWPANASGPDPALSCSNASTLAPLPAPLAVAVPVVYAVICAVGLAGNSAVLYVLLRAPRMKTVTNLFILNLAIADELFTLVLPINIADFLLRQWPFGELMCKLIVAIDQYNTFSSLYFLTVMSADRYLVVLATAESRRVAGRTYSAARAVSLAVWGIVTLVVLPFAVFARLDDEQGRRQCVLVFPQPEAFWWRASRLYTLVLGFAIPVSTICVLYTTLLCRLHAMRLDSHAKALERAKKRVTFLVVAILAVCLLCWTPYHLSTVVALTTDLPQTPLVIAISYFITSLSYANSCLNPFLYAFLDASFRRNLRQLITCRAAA", "experiment": "human NPBW1 receptor blockade, IC50 – cell-based, fluorescence, dose response, set 6, late-stage follow-up (AID 588583)", "type": "functional"}}, "note": "The source made the active and inactive calls.", "data": [{"smiles": "CC1=CC2/C=C(\\C)CCC(O)C(O)/C=C/C(=O)C23C(=O)NC(CC(C)C)C3C1C", "note": "(stereo not drawn)", "values": [{"measurement": "IC50", "setting": "[1]", "result": "3.06 µM (active)"}, {"measurement": "EC50", "setting": "[2]", "result": "> 120 µM (not active)"}, {"measurement": "EC50", "setting": "[3]", "result": "4.94 µM (active)"}, {"measurement": "EC50", "setting": "[4]", "result": "8.86 µM (active)"}, {"measurement": "EC50", "setting": "[5]", "result": "9.67 µM (active)"}, {"measurement": "EC50", "setting": "[6]", "result": "6.51 µM (active)"}, {"measurement": "EC50", "setting": "[7]", "result": "4.09 µM (active)"}, {"measurement": "EC50", "setting": "[8]", "result": "4.73 µM (active)"}, {"measurement": "IC50", "setting": "[9]", "result": "0.648 µM (active)"}, {"measurement": "EC50", "setting": "[10]", "result": "4.8 µM (inconclusive)"}, {"measurement": "EC50", "setting": "[11]", "result": "4.94 µM (inconclusive)"}, {"measurement": "IC50", "setting": "[12]", "result": "17.6 µM (not active)"}, {"measurement": "EC50", "setting": "[13]", "result": "> 32 µM (inactive)"}, {"measurement": "AC50", "setting": "[14]", "result": "6.58 µM (active)"}, {"measurement": "IC50", "setting": "[15]", "result": "4.38 µM (active)"}, {"measurement": "AC50", "setting": "[16]", "result": "6.6 µM (active)"}, {"measurement": "IC50", "setting": "[17]", "result": "3.16 µM (active)"}, {"measurement": "AC50", "setting": "[18]", "result": "10.4 µM (active)"}, {"measurement": "AC50", "setting": "[19]", "result": "5.29 µM (active)"}, {"measurement": "AC50", "setting": "[20]", "result": "8.15 µM (active)"}, {"measurement": "AC50", "setting": "[21]", "result": "6.91 µM (active)"}]}, {"smiles": "N#CC(Cc1ccccc1)c1c(Cl)cnn(Cc2cccc3ccccc23)c1=O", "note": "(stereo not drawn)", "values": [{"measurement": "IC50", "setting": "[22]", "result": "~2.06 µM (active)"}, {"measurement": "IC50", "setting": "[23]", "result": "~2.06 µM (active)"}]}]}
